The numbers were not newly measured in patent US20190352602A1, “Methods and Compositions for Producing Germ Cells from Bone Marrow Derived Germline Stem Cells” (The General Hospital Corporation, priority 2004, published 2019), which cites them from elsewhere.

This data set deals with irradiated testicular tissue. The settings on record: irradiated testicular tissue treated with S1P vs untreated tissues.

Consider `CCCCCCCCCCCCC/C=C/[C@@H](O)[C@@H](N)COP(=O)(O)O` [S1P, Sphingosine-1-phosphate], for which the “numbers of primary spermatocytes and spermatogonia” value is “higher than untreated tissues”.
